Experimental data: the NIST ThermoML archive (doi:10.1021/acs.jced.8b00554)
Numbers after ± are expanded uncertainties.

Assay: xn = mol fraction of the nth substance listed
Settings: 343.15 K, Liquid, Vibrating tube method

CCCCCCCCC [nonane] + CCCO
Settings	mass density [kg/m3]
1010 kPa, x2 = 0.1231	677.59 ± 4.3
1010 kPa, x2 = 0.4272	689.57 ± 4.4
1010 kPa, x2 = 0.7021	711.27 ± 4.5
1010 kPa, x2 = 0.8941	737.45 ± 4.7
1020 kPa, x2 = 0.3229	684.46 ± 4.4
2000 kPa, x2 = 0.3229	685.59 ± 4.4
2010 kPa, x2 = 0.1231	678.71 ± 4.3
2010 kPa, x2 = 0.2315	682.42 ± 4.4
2010 kPa, x2 = 0.4272	690.68 ± 4.4
2010 kPa, x2 = 0.7021	712.38 ± 4.6
2010 kPa, x2 = 0.8941	738.5 ± 4.7
3000 kPa, x2 = 0.3229	686.69 ± 4.4
3000 kPa, x2 = 0.4272	691.79 ± 4.4
3000 kPa, x2 = 0.7021	713.46 ± 4.6
3010 kPa, x2 = 0.1231	679.8 ± 4.3
3010 kPa, x2 = 0.8941	739.56 ± 4.7
3020 kPa, x2 = 0.2315	683.53 ± 4.4
4010 kPa, x2 = 0.2315	684.63 ± 4.4
4010 kPa, x2 = 0.3229	687.78 ± 4.4
4010 kPa, x2 = 0.7021	714.57 ± 4.6
4020 kPa, x2 = 0.1231	680.88 ± 4.4
4020 kPa, x2 = 0.4272	692.9 ± 4.4
4020 kPa, x2 = 0.8941	740.61 ± 4.7
5000 kPa, x2 = 0.1231	681.97 ± 4.4
5000 kPa, x2 = 0.7021	715.67 ± 4.6
5010 kPa, x2 = 0.3229	688.88 ± 4.4
5010 kPa, x2 = 0.4272	694 ± 4.5
5010 kPa, x2 = 0.8941	741.67 ± 4.8
5020 kPa, x2 = 0.2315	685.69 ± 4.4
6010 kPa, x2 = 0.1231	683.04 ± 4.4
6010 kPa, x2 = 0.3229	689.97 ± 4.4
6010 kPa, x2 = 0.4272	695.09 ± 4.5
6010 kPa, x2 = 0.7021	716.75 ± 4.6
6020 kPa, x2 = 0.2315	686.75 ± 4.4
6020 kPa, x2 = 0.8941	742.73 ± 4.8
7000 kPa, x2 = 0.3229	691.04 ± 4.4
7000 kPa, x2 = 0.8941	743.78 ± 4.8
7010 kPa, x2 = 0.2315	687.82 ± 4.4
7010 kPa, x2 = 0.4272	696.18 ± 4.5
7020 kPa, x2 = 0.1231	684.1 ± 4.4
7020 kPa, x2 = 0.7021	717.84 ± 4.6
8000 kPa, x2 = 0.2315	688.91 ± 4.4
8000 kPa, x2 = 0.8941	744.82 ± 4.8
8010 kPa, x2 = 0.3229	692.11 ± 4.4
8010 kPa, x2 = 0.4272	697.28 ± 4.5
8020 kPa, x2 = 0.1231	685.16 ± 4.4
8020 kPa, x2 = 0.7021	718.92 ± 4.6
9010 kPa, x2 = 0.1231	686.2 ± 4.4
9010 kPa, x2 = 0.2315	689.96 ± 4.4
9010 kPa, x2 = 0.3229	693.2 ± 4.4
9010 kPa, x2 = 0.8941	745.86 ± 4.8
9020 kPa, x2 = 0.4272	698.35 ± 4.5
9020 kPa, x2 = 0.7021	720.01 ± 4.6
10000 kPa, x2 = 0.2315	690.99 ± 4.4
10000 kPa, x2 = 0.7021	721.05 ± 4.6
10000 kPa, x2 = 0.8941	746.88 ± 4.8
10010 kPa, x2 = 0.1231	687.25 ± 4.4
10010 kPa, x2 = 0.3229	694.26 ± 4.5
10020 kPa, x2 = 0.4272	699.44 ± 4.5
11000 kPa, x2 = 0.3229	695.31 ± 4.5
11000 kPa, x2 = 0.4272	700.47 ± 4.5
11010 kPa, x2 = 0.1231	688.29 ± 4.4
11010 kPa, x2 = 0.7021	722.11 ± 4.6
11020 kPa, x2 = 0.2315	692.04 ± 4.4
11020 kPa, x2 = 0.8941	747.91 ± 4.8
12000 kPa, x2 = 0.3229	696.36 ± 4.5
12010 kPa, x2 = 0.1231	689.31 ± 4.4
12010 kPa, x2 = 0.2315	693.08 ± 4.4
12010 kPa, x2 = 0.4272	701.53 ± 4.5
12010 kPa, x2 = 0.8941	748.9 ± 4.8
12020 kPa, x2 = 0.7021	723.13 ± 4.6
13010 kPa, x2 = 0.4272	702.56 ± 4.5
13010 kPa, x2 = 0.8941	749.87 ± 4.8
13020 kPa, x2 = 0.1231	690.32 ± 4.4
13020 kPa, x2 = 0.2315	694.1 ± 4.5
13020 kPa, x2 = 0.3229	697.39 ± 4.5
13020 kPa, x2 = 0.7021	724.18 ± 4.6
14000 kPa, x2 = 0.1231	691.3 ± 4.4
14000 kPa, x2 = 0.3229	698.41 ± 4.5
14000 kPa, x2 = 0.8941	750.86 ± 4.8
14010 kPa, x2 = 0.2315	695.1 ± 4.5
14010 kPa, x2 = 0.7021	725.19 ± 4.7
14020 kPa, x2 = 0.4272	703.57 ± 4.5
15010 kPa, x2 = 0.1231	692.28 ± 4.4
15010 kPa, x2 = 0.4272	704.56 ± 4.5
15010 kPa, x2 = 0.7021	726.16 ± 4.7
15010 kPa, x2 = 0.8941	751.83 ± 4.8
15020 kPa, x2 = 0.2315	696.09 ± 4.5
15020 kPa, x2 = 0.3229	699.39 ± 4.5
16000 kPa, x2 = 0.8941	752.78 ± 4.8
16010 kPa, x2 = 0.1231	693.22 ± 4.5
16010 kPa, x2 = 0.7021	727.16 ± 4.7
